Experimental data from patent US7893286B2, “Method for the synthesis of phospholipid ethers” (Cellectar, Inc., priority 2007, dated 2011).

Test system: A549 human non-small cell lung cancer xenografts
Experiment: Antitumor effect of single-dose ^125I-NM404 on tumor volume in SCID mice bearing A549 xenografts
Type: in vivo
Conditions: for effect on tumor volume compared to control animals: up to 10 weeks post-injection
Source text: FIG. 2, illustrates antitumor effect of single-dose treatment with ^125I-125-NM404 at doses of 50 (⊚), 150 (□), 250 (⋄) and 500 (∘) μCi in SCID mice bearing A549 human non-small cell lung cancer xenografts. In this figure, control animals show rapidly growing tumors over the 10-week assessment period.
FIG. 2 summarizes investigations into the efficacy of ^125I-NM404 treatment. These investigations provided assessments of tumor volume were made until 10 weeks post-injection or until no animal in the control group is alive, whatever came first. Summarizing the results, control animals show rapidly growing tumors over the 10-week assessment period. […] Tumor volumes are stable and same tumors appear “collapsed” (the tumor surface has caved in). Additionally, FIG. 3 illustrates that hair above the tumors fell off confirming substantial accumulation of radioactivity in these tumors.

SMILES: C[N+](C)(C)CCOP(=O)([O-])OCCCCCCCCCCCCCCCCCCc1ccc([125I])cc1 [^125I-NM404]
- effect on the tumor (appearance) (250 μCi, 4 weeks following injection): causes central necrosis
- dose dependence of effect on tumor volume (doses 50-500 μCi): dose-linear effect
- tumor therapy efficacy (following single injection and fractionated dosing): effective tumor therapy treatment
- effect on tumor volume compared to control animals (single dose 50 μCi): did not show any difference
- effect on tumor volume compared to control animals (single dose 250 μCi): substantial and prolonged treatment effect
- effect on tumor volume compared to control animals (single dose 500 μCi): substantial and prolonged treatment effect
